Where no end group is shown, it is not given here.
Assays:
Format in all cases: cell-based
[1] = test system: A549 cells (CDCA1+, HLA-2−); test: 51Cr release assay of peptide-induced human CTLs against A549; settings: No. 1: cancer patient donor 1 CTLs; No. 4: healthy donor 1 CTLs
Source text: (§1) Monocyte-derived DC cells were used as antigen-presenting cells for induction of CTLs in response to HLA-presented peptides. DCs were obtained by previously reported in vitro methods (Suda T, et al. Cancer Sci. 2007; Nakahara S, et al. Cancer Res. 2003; 63:4112-8). Briefly, peripheral blood […] (PBMCs) isolated from HLA-A*0201 positive healthy volunteers and NSCLC patients using a Ficoll-Paque solution (GE Healthcare UK, Ltd., Buckinghamshire, UK) were screened for […] CD14 positive populations using MicroBeads (Miltenyi Biotec, Bergisch Gladbach, Germany). […] Six days after the third peptide stimulation on day 25, the antigen-specific CTL response was evaluated by Chromium (Cr) release assay and IFN-γ ELISPOT assay.
(§2) CTLs were co-cultured at various effector cell/target cell ratios with target cells which are various cancer cell lines and T2 cells with or without peptide pulsing, and ^51Cr release assay and IFN-γ ELISPOT assay were conducted using conventional methods (Komori H, et al., Clin. Cancer Res. 2006; 12:2689-2697; Makita M, et al. Clin. Cancer Res. 2002; 8:2626-31; Yokomine K, et al. Cancer Sci. 2007; 98:1930-5). […] Six hours after incubation, 50 μL of the supernatant was collected from each well, and radioactivity was quantified using a gamma counter. […]

peptide-pulsed T2 cells = test: 51Cr release assay of peptide-induced human CTLs against peptide-pulsed T2 cells; settings: CTLs from cancer patient donor 1 and healthy donor 1
Source text: as §1, §2

[2] = test system: PANC1 cells (CDCA1+, HLA-A2+); test: 51Cr release assay of peptide-induced human CTLs against PANC1; settings: No. 1: cancer patient donor 1 CTLs; No. 4: healthy donor 1 CTLs
Source text: as §1, §2

[3] = test system: COLO201 cells (CDCA1−, HLA-A2+); test: 51Cr release assay of peptide-induced human CTLs against COLO201; settings: cancer patient donor 1 CTLs
Source text: as §1, §2

KLATAQFKI [No. 4, KLATAQFKI]
cytotoxic activity against A549 cells [1]: not
cytotoxic activity against peptide-pulsed T2 cells (peptide-pulsed T2 cells): showed cytotoxic activity
cytotoxic activity against PANC1 cells [2]: showed cytotoxic activity

YMMPVNSEV [No. 1, YMMPVNSEV]
cytotoxic activity against COLO201 cells [3]: not
cytotoxic activity against A549 cells [1]: not
cytotoxic activity against peptide-pulsed T2 cells (peptide-pulsed T2 cells): showed cytotoxic activity
cytotoxic activity against PANC1 cells [2]: showed cytotoxic activity
